Where two headings read alike, the source gives them in different places.
Columns and labels:
[1] = Storage stability in air at room temperature; type: physicochemical; settings: similar to GLA, best stored long term in a cool place under nitrogen
Protocol: For the purposes of this exemplification, the synthesis of this ester was carried out by acylation of the commercially available glycerol formal mixture using γ-linolenoyl chloride. By this method a mixture of two products is formed and these were separable by column chromatography. The undesired by-product is eluted off the column first; further elution gives the desired acetal-ester.

[2] = test system: TGF-β1; test: TGF-β1 production by spleen mononuclear cells of C57/BL mice dosed orally with 2 GLA MG formal (ELISA); type: in vivo; settings: for Spleen mononuclear cell TGFβ production: Con A and unstimulated data combined, n=9/group, mean ± SEM
Protocol: C57/BL mice were dosed orally with 2 GLA MG formal at two doses of 50 and 150 ul for eight days. The compound was supplied in 8 separate tubes to be stored at 4° C. prior to dosing but warmed to 25° C. before use.
Data were therefore combined for the purposes of statistical analysis (n=9/group). Data were analysed using Graphpad Instat.

[3] = test system: TGF-β1; settings: monoglyceride 50 μg
Protocol: Solublization of Sn-2 monoglyceride was performed using ethyl alcohol or DMSO for in vitro work on human peripheral blood mononuclear cells (PBMCs). […] SJL mice were fed sn-2 GLA of Example 1 at three doses (50, 125 and 250 μl) for seven days by gavage. […] After seven days animals were killed and the brain, liver and spleen were removed the liver and brain frozen at −70° C. and mononuclear cells were isolated from spleens by sieving and density centrifugation on Lymphoprep (Sigma Chemical Co) and cultured at 37° C. in 5% CO2 atmosphere in 5 ml culture tubesat a cell density of 1×10^6 cells/ml in RPMI 1640 medium in 5% foetal calf serum (FCS). Cells were cultured with and without 1 μg/ml or […] concanavalin A (Con A) for approximately 20 hours and the supernatants removed and stored at −70° C. until required. Mouse […] was measured in supernatants using a commercially available ELISA (Promega, Madison Wis.).

[4] = mouse, in vivo

Row | SMILES | Stability in air [1] | Spleen mononuclear cell TGFβ production ([2]; 50 ul orally for eight days) [pg/mL] | Increase of spleen mononuclear cell TGFβ production vs controls ([2]; 150 ul orally for eight days) | Spleen mononuclear cell TGFβ production ([2]; 150 ul orally for eight days) [pg/mL] | Change % of TGF-β1 production vs control ([3]; Con A 0 μg/ml) [%] | TGF-β1 production from spleen PBMCs, unstimulated ([3]; Con A 0 μg/ml, fed by gavage for seven days, cells cultured about 20 hours) [pg/mL] | Change % of TGF-β1 production vs control ([3]; Con A 1 μg/ml) [%] | TGF-β1 production from spleen PBMCs, stimulated (Con A) ([3]; Con A 1 μg/ml, fed by gavage for seven days, cells cultured about 20 hours) [pg/mL] | Change % of TGF-β1 production vs control ([3]; Con A 25 μg/ml) [%] | TGF-β1 production from spleen PBMCs, stimulated (Con A) ([3]; Con A 25 μg/ml, fed by gavage for seven days, cells cultured about 20 hours) [pg/mL] | Regurgitation after gavage [4]
1 | CCCCC/C=C\C/C=C\C/C=C\CCCCC(=O)OC1COCOC1 [GLA 2-MG-F, 5-(γ-linolenoyloxy)-1,3-dioxan] | stable in air at room temperature for short periods (days) | 90.9 ± 5.2 | P < 0.0001 ↑ 103% | 158.6 ± 7.5 |  |  |  |  |  |  | 
2 | CCCCC/C=C\C/C=C\C/C=C\CCCCC(=O)OC(CO)CO [γ-linolenic acid monoglyceride] |  |  |  |  | 80 | 377 | 79 | 409 | 42 | 480 | prone to regurgitation

Reference: US8114903B2, “Cytokine modulators using cyclic glycerides of essential polyunsaturated fatty acids” (BTG International Limited, priority 2005, dated 2012)
